Test system in the first data set: not listed separately
Description: in vivo. To be noted: mouse, ip, single administration i.p., female NMRI mice, approximate values.
Take `CC(C)NCC(O)COc1ccccc1C(=O)CCc1cccn1C` (centres unmarked) [Example 3]: the LD50 is 68.1 mg/kg.

Turning to `CCCNCC(O)COc1ccccc1C(=O)CCc1cccn1C` (centres unmarked) [Example 4], the LD50 is 46.4 mg/kg.

`CC(C)N(CC(O)COc1ccccc1C(=O)CCc1cccn1C)C(C)C` (centres unmarked) [Example 5] had an LD50 of 68.1 mg/kg.

The compound `CC(C)NCC(O)COc1ccccc1C(=O)CCc1ccn(C)c1` (centres unmarked) [Example 7] yielded an LD50 of 46.4 mg/kg.

Turning to `CCCNCC(O)COc1ccccc1C(=O)CCc1cnn(C)c1` (centres unmarked) [Example 9], the LD50 is 31.6 mg/kg.

`CCC(C)(C)NCC(O)COc1ccccc1C(=O)CCc1cnn(C)c1` (centres unmarked) [Example 12] displayed an LD50 of 68.1 mg/kg.

For the compound `CCC(C)(C)NCC(O)COc1ccccc1C(=O)CCc1ccccc1` (centres unmarked) [diprafenone, 2-[2-hydroxy-3-(1,1-dimethylpropylamino)-propoxy]-ω-phenylpropiophenone, reference compound], the LD50 was determined as 68.1 mg/kg.

The test system of another data set is aconitine-induced arrythmia in the dog. The experiment in a line: Antiarrhythmic action on aconitine-induced arrythmia in the dog (oral administration). To be noted: Canis lupus familiaris, po, 1 h, read-out: Prolongation of aconitin infusion period. The data set is classed as in vivo, dog (male or female mongrel dogs). The method, then: Male or female mongrel dogs weighing 12-15 kg were used. The substances to be tested were administered orally, 40 minutes after induction of anesthesia using Na pentobarbital (30 mg/kg i.v.). Cardiac arrhythmias were induced by infusion of aconitine (5 μg per kg per min), the infusion beginning 60 minutes after administration of the substance. In the ECG of untreated animals, arrhythmias (loss or inversion of P, ventricular tachyarrhythmias) occurred after an average infusion time of 6.4±0.29 min.
When the substances according to the invention were administered in a dose of 10 mg/kg, the time which elapsed before arrhythmias appeared was prolonged. […]; the antiarrhythmic activity is higher (Table 1).
As to `CC(C)NCC(O)COc1ccccc1C(=O)CCc1cccn1C` (centres unmarked) [Example 3], the change in vivo at 10 mg/kg is 85%.

For the compound `CCCNCC(O)COc1ccccc1C(=O)CCc1cccn1C` (centres unmarked) [Example 4], the change in vivo at 10 mg/kg turned out to be 70%.

`CC(C)N(CC(O)COc1ccccc1C(=O)CCc1cccn1C)C(C)C` (centres unmarked) [Example 5]: the change in vivo at 10 mg/kg amounted to 85%.

Turning to `CC(C)NCC(O)COc1ccccc1C(=O)CCc1ccn(C)c1` (centres unmarked) [Example 7], the change in vivo at 10 mg/kg is 193%.

With `CCCNCC(O)COc1ccccc1C(=O)CCc1cnn(C)c1` (centres unmarked) [Example 9], the change in vivo at 10 mg/kg was 154%.

For `CCC(C)(C)NCC(O)COc1ccccc1C(=O)CCc1cnn(C)c1` (centres unmarked) [Example 12], the change in vivo at 10 mg/kg came out at 137%.

In the case of `CCC(C)(C)NCC(O)COc1ccccc1C(=O)CCc1ccccc1` (centres unmarked) [diprafenone, 2-[2-hydroxy-3-(1,1-dimethylpropylamino)-propoxy]-ω-phenylpropiophenone, reference compound], the change in vivo at 10 mg/kg is 33%.

Still in this data set, the particulars now being: dog, 10 mg/kg, oral.
As for `CCCNCC(O)COc1ccccc1C(=O)CCc1cccn1C` (centres unmarked) [Example 4], the “prolongation of time before arrhythmias appeared, relative to that obtained with propafenone and diprafenone (times greater)” value is “twice”.

Consider `CC(C)NCC(O)COc1ccccc1C(=O)CCc1ccn(C)c1` (centres unmarked) [Example 7], for which the “prolongation of time before arrhythmias appeared, relative to that obtained with propafenone and diprafenone (times greater)” value is given as “six times”.

A further data set relates to arrhythmias after infarct in the conscious dog. The experiment in a line: Antiarrhythmic action on arrhythmias after infarct (coronary ligature) in the conscious dog. The data set is classed as in vivo, dog (male and female beagle dogs). To be noted: oral. How it is done:
The substances were also tested with regard to their action on arrhythmias after coronary ligature. This method permits conclusions to be drawn as to the action on arrhythmias after infarct in man. Male and female beagle dogs weighing 9-15 kg were used. The ramus descendens of the left coronary artery was ligatured by a modified method of Harris (Circulation, 1, 1318-1328, 1950). Tachycardic, usually ventricular arrhythmias of various origins resulted which were detectable on the ECG, with P loss QRS deformation and T wave elevation. The measure for determining antiarrhythmic action was the frequency (%) of normal heart actions ascertained during a 100-minute control period at 5-minute intervals. Hearbeats had to be at most 29% of the normal during this control period before a substance was administered. After administration, the ECG was run, as in the control period, for 100 minutes at 5-minute intervals, and then for a further 200 minutes at 10-minute intervals.
For `CC(C)N(CC(O)COc1ccccc1C(=O)CCc1cccn1C)C(C)C` (centres unmarked) [Example 5], the “inhibition of arrhythmias compared with propafenone and diprafenone (in words)” value is “more active than propafenone and diprafenone at the same rate”.

Take `CC(C)NCC(O)COc1ccccc1C(=O)CCc1ccn(C)c1` (centres unmarked) [Example 7]: the “inhibition of arrhythmias compared with propafenone and diprafenone (in words)” value is “more active than propafenone and diprafenone at the same rate”.

Turning to `CCCNCC(O)COc1ccccc1C(=O)CCc1cnn(C)c1` (centres unmarked) [Example 9], the “inhibition of arrhythmias compared with propafenone and diprafenone (in words)” value was “inhibited arrhythmias to just as great an extent as propafenone, and to a far greater extent than diprafenone”.

Still in this data set, the particulars now being: oral, dose 10.0 mg/kg.
In the case of `CC(C)N(CC(O)COc1ccccc1C(=O)CCc1cccn1C)C(C)C` (centres unmarked) [Example 5], the “Increase in normal heart actions” value is reported as 66%.

Turning to `CC(C)NCC(O)COc1ccccc1C(=O)CCc1ccn(C)c1` (centres unmarked) [Example 7], the “Increase in normal heart actions” value was 92%.

The data set is the same for the next values; noted with them: oral, dose 21.5 mg/kg.
For the compound `CCC(C)(C)NCC(O)COc1ccccc1C(=O)CCc1ccccc1` (centres unmarked) [diprafenone, 2-[2-hydroxy-3-(1,1-dimethylpropylamino)-propoxy]-ω-phenylpropiophenone, reference compound], the “Increase in normal heart actions” value was 43%.

The data set is the same for the next values; noted with them: relative to propafenone.
`CCCNCC(O)COc1ccccc1C(=O)CCc1cnn(C)c1` (centres unmarked) [Example 9]: the “oral dosage rate giving inhibition of arrhythmias as great as propafenone (times less)” value is “about 5 times less”.

As usually defined, the LD50 is the dose at which mortality reaches 50%. Read a high LD50 as lower toxicity.
